Data on 20 compounds can be found in patent US8637499B2, “Benzoxazepines as inhibitors of PI3K/mTOR and methods of their use and manufacture” (Exelixis, Inc., priority 2009, dated 2014).

Some results are limits rather than exact numbers.

One experiment concerns the target PI3Kα (Homo sapiens, UniProt P42336). The experiment can be described thus: PI3K Biochemical Assays (ATP consumption, luciferase-luciferin chemiluminescence). The settings on record: PI3Kα 1.5 nM, ATP 1 μM, PIP2 10 μM; percent of ATP consumed. The essentials: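 Enzyme (1.5 nM), PIP2 substrate (10 μM) and ATP (1 μM) react about 2 h at room temperature in Tris buffer pH 7.5 with MgCl2, EGTA, DTT and CHAPS. Remaining ATP detected by Kinase-Glo luminescence; total consumption limited to 40-60%.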

The target of another experiment is mTORC1 (mTOR/GbL/Raptor) (Homo sapiens, UniProt P42345). The experiment can be described thus: mTOR/GbL/Raptor (mTORC1) ELISA Assay. It counts as biochemical. The settings on record: 0.2 nM mTORC1, 10 μM ATP, 50 nM NHis-tagged 4E-BP1; phosphorylation of 4E-BP1; read-out: IC50. The essentials: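 Detection used Ni-chelate capture of His-tagged 4E-BP1, then anti-phospho-4E-BP1 and HRP anti-IgG with luminescent ELISA substrate. Reactions ran 120 min at ambient temperature with 0.2 nM mTORC1, 10 μM ATP, 50 nM 4E-BP1, 10 mM MnCl2, pH 7.2 Hepes.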
Background: In an ELISA, binding on a coated surface is turned into a signal by an enzyme label.

One may read the IC50 as the concentration at which inhibition is half-maximal.

Sequence of PI3Kα (P42336 whole entry): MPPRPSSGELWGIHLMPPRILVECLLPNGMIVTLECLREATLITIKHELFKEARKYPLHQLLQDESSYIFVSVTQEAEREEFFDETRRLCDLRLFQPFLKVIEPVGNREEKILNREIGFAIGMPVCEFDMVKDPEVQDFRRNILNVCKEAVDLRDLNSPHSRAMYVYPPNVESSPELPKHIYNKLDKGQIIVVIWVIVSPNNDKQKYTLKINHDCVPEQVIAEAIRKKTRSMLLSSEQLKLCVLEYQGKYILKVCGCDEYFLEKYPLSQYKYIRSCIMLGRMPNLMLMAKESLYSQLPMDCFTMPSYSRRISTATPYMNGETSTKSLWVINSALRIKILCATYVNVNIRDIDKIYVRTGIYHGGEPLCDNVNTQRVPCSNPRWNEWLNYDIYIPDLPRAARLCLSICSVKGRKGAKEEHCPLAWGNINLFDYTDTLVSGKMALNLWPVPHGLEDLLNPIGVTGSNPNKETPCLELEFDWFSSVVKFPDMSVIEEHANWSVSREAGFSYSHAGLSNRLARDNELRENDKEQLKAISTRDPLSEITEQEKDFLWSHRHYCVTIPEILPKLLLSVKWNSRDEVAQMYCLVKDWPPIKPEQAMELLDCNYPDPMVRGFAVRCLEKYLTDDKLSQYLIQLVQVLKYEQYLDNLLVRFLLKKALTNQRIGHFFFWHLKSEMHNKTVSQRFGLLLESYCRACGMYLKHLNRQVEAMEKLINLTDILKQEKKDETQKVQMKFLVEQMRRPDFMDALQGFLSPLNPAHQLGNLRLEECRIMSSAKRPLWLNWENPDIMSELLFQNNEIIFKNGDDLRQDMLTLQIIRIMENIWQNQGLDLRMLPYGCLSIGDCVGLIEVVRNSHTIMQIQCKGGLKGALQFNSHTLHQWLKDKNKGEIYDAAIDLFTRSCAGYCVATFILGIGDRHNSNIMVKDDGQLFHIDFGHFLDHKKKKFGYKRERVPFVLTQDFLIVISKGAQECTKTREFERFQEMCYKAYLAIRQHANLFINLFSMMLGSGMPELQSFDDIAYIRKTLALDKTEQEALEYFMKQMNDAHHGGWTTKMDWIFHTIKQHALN
Sequence of PI3Kα (P27986 whole entry partner): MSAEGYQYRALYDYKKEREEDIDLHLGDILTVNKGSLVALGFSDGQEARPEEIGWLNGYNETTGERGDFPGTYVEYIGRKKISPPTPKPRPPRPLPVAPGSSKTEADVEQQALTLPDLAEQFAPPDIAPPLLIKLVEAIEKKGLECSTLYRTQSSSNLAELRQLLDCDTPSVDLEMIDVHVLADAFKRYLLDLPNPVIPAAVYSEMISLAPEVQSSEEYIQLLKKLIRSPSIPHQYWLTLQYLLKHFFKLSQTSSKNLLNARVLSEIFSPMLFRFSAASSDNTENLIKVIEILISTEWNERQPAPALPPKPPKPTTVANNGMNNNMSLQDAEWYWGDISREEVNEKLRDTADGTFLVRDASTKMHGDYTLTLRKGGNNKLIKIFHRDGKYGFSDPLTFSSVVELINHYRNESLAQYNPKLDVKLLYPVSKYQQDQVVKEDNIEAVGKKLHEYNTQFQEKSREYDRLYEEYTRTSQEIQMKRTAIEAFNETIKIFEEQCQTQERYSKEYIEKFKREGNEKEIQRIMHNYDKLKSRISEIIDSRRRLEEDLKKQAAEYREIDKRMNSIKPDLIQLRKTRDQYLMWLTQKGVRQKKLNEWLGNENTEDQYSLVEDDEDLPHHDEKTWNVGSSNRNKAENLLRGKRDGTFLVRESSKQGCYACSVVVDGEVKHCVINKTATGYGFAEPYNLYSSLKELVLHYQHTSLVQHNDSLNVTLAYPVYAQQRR

With `Cc1nc2ccc(-c3ccc4c(c3)CN(C(=O)N3CC[C@@H](C#N)C[C@@H]3c3ccc(F)c(F)c3)CCO4)cc2[nH]1` (racemic) [Compound 148, (±)-(2R,4R)-2-(3,4-difluorophenyl)-1-{[7-(2-methyl-1H-benzimidazol-6-yl)-2,3-dihydro-1,4-benzoxazepin-4(5H)-yl]carbonyl}piperidine-4-carbonitrile], the IC50 on PI3Kα lay in the range of 200 to 500 nM; on mTORC1 (mTOR/GbL/Raptor), 50 to 250 nM.

For `CC1=C[C@H]2CN(C(=O)N3CCOc4ccc(-c5ccc6[nH]c(C)nc6c5)cc4C3)C[C@H]2C1` (racemic) [Compound 91, (±)-7-(2-methyl-1H-benzimidazol-5-yl)-4-{[(3aS,6aR)-5-methyl-3,3a,4,6a-tetrahydrocyclopenta[c]pyrrol-2(1H)-yl]carbonyl}-2,3,4,5-tetrahydro-1,4-benzoxazepine], the IC50 against PI3Kα lay within 200 to 500 nM; on mTORC1 (mTOR/GbL/Raptor) it was 50 to 250 nM.

On to `Cc1nc2ccc(-c3ccc4c(c3)CN(C(=O)N3CCC(O)CC3)CCO4)cc2[nH]1` [Compound 68, 1-{[7-(2-methyl-1H-benzimidazol-6-yl)-2,3-dihydro-1,4-benzoxazepin-4(5H)-yl]carbonyl}piperidin-4-ol], for which the IC50 lay within 1000 to 3000 nM against PI3Kα and 250 to 700 nM at mTORC1 (mTOR/GbL/Raptor).

With `Cc1nc2cc(-c3ccc4c(c3)CN(C(=O)N3CCC(=O)CC3c3cccc(F)c3)CCO4)cnc2[nH]1` (stereo not shown) [Compound 51, 2-(3-fluorophenyl)-1-{[7-(2-methyl-3H-imidazo[4,5-b]pyridin-6-yl)-2,3-dihydro-1,4-benzoxazepin-4(5H)-yl]carbonyl}piperidin-4-one], the values for the IC50 at PI3Kα and at mTORC1 (mTOR/GbL/Raptor) were 200 to 500 nM and 50 to 250 nM, respectively.

Consider `Cc1nc2ccc(-c3ccc4c(c3)CN(C(=O)N3CCCCC3)CCO4)cc2[nH]1` [Compound 86, 7-(2-methyl-1H-benzimidazol-6-yl)-4-(piperidin-1-ylcarbonyl)-2,3,4,5-tetrahydro-1,4-benzoxazepine], for which the half-maximal inhibitory concentration (IC50) was 200 to 500 nM on PI3Kα and 250 to 700 nM on mTORC1 (mTOR/GbL/Raptor).

As for `Nc1nc2ncc(-c3ccc4c(c3)CN(C(=O)N3CCC(C(F)F)CC3)CCO4)cc2[nH]1` [Compound 43, 6-(4-{[4-(difluoromethyl)piperidin-1-yl]carbonyl}-2,3,4,5-tetrahydro-1,4-benzoxazepin-7-yl)-1H-imidazo[4,5-b]pyridin-2-amine], the IC50 against PI3Kα is 75 to 200 nM; at mTORC1 (mTOR/GbL/Raptor) it was not above 50 nM.

`Cc1nc2ccc(-c3ccc4c(c3)CN(C(=O)N3CCN(c5cccc(Cl)c5)CC3)CCO4)cc2[nH]1` [Compound 176, 4-{[4-(3-chlorophenyl)piperazin-1-yl]carbonyl}-7-(2-methyl-1H-benzimidazol-6-yl)-2,3,4,5-tetrahydro-1,4-benzoxazepine]: the half-inhibitory concentration (IC50) against PI3Kα is 1000 to 3000 nM; on mTORC1 (mTOR/GbL/Raptor), 50 to 250 nM.

For the compound `Cc1nc2ccc(-c3ccc4c(c3)CN(C(=O)N3CCC(Cc5ccccc5)C3)CCO4)cc2[nH]1` (stereo not shown) [Compound 100, 7-(2-methyl-1H-benzimidazol-6-yl)-4-{[3-(phenylmethyl)pyrrolidin-1-yl]carbonyl}-2,3,4,5-tetrahydro-1,4-benzoxazepine], the IC50 against PI3Kα lay in the range of 500 to 1000 nM; at mTORC1 (mTOR/GbL/Raptor), 250 to 700 nM.

`COC(=O)Nc1nc2ncc(-c3ccc4c(c3)CN(C(=O)N3CCC(C(C)(F)F)CC3)CCO4)cc2[nH]1` [Compound 34, methyl [6-(4-{[4-(1,1-difluoroethyl)piperidin-1-yl]carbonyl}-2,3,4,5-tetrahydro-1,4-benzoxazepin-7-yl)-1H-imidazo[4,5-b]pyridin-2-yl]carbamate]: the IC50 against PI3Kα is not above 75 nM; at mTORC1 (mTOR/GbL/Raptor) it was not above 50 nM.

As for `NC(=O)C1CCN(C(=O)N2CCOc3ccc(-c4cnc5nc(N)[nH]c5c4)cc3C2)CC1` [Compound 47, 1-{[7-(2-amino-1H-imidazo[4,5-b]pyridin-6-yl)-2,3-dihydro-1,4-benzoxazepin-4(5H)-yl]carbonyl}piperidine-4-carboxamide], the IC50 is not above 75 nM against PI3Kα and not above 50 nM at mTORC1 (mTOR/GbL/Raptor).

As for `O=C1CCN(C(=O)N2CCOc3ccc(-c4cnc5[nH]cnc5c4)cc3C2)C(c2cccc(F)c2)C1` (stereo not shown) [Compound 52, 2-(3-fluorophenyl)-1-{[7-(3H-imidazo[4,5-b]pyridin-6-yl)-2,3-dihydro-1,4-benzoxazepin-4(5H)-yl]carbonyl}piperidin-4-one], the IC50 against PI3Kα fell in the range of 200 to 500 nM; on mTORC1 (mTOR/GbL/Raptor) it was 50 to 250 nM.

In the case of `Cc1nc2ccc(-c3ccc4c(c3)CN(C(=O)N3CC5CN(c6ccccc6)CC5C3)CCO4)cc2[nH]1` (stereo not shown) [Compound 110, 7-(2-methyl-1H-benzimidazol-6-yl)-4-[(5-phenylhexahydropyrrolo[3,4-c]pyrrol-2(1H)-yl)carbonyl]-2,3,4,5-tetrahydro-1,4-benzoxazepine], the IC50 fell in the range of 200 to 500 nM at PI3Kα and 250 to 700 nM on mTORC1 (mTOR/GbL/Raptor).

As for `CCC1CCC(C)N(C(=O)N2CCOc3ccc(-c4ccc5nc(C)[nH]c5c4)cc3C2)C1` (stereo not shown) [Compound 76, 4-[(5-ethyl-2-methylpiperidin-1-yl)carbonyl]-7-(2-methyl-1H-benzimidazol-6-yl)-2,3,4,5-tetrahydro-1,4-benzoxazepine], the IC50 fell in the range of 200 to 500 nM at PI3Kα and 50 to 250 nM at mTORC1 (mTOR/GbL/Raptor).

Regarding `Cc1nc2ccc(-c3ccc4c(c3)CN(C(=O)N3CCCC(c5ccccc5)C3)CCO4)cc2[nH]1` (stereo not shown) [Compound 97, 7-(2-methyl-1H-benzimidazol-6-yl)-4-[(3-phenylpiperidin-1-yl)carbonyl]-2,3,4,5-tetrahydro-1,4-benzoxazepine], the IC50 fell in the range of 500 to 1000 nM against PI3Kα and 250 to 700 nM at mTORC1 (mTOR/GbL/Raptor).

For the compound `Cc1nc2cc(-c3ccc4c(c3)CN(C(=O)N3CC[C@](C)(O)C[C@@H]3c3ccccc3)CCO4)ccc2[nH]1` (racemic) [Compound 134, (±)-(2R,4S)-4-methyl-1-{[7-(2-methyl-1H-benzimidazol-5-yl)-2,3-dihydro-1,4-benzoxazepin-4(5H)-yl]carbonyl}-2-phenylpiperidin-4-ol], the figures for the 50% inhibitory concentration (IC50) on PI3Kα and on mTORC1 (mTOR/GbL/Raptor) were 1000 to 3000 nM and 700 to 2600 nM, respectively.

Turning to `Cc1nc2ccc(-c3ccc4c(c3)CN(C(=O)N3CCCCC3c3ccccc3)CCO4)cc2[nH]1` (stereo not shown) [Compound 96, 7-(2-methyl-1H-benzimidazol-6-yl)-4-[(2-phenylpiperidin-1-yl)carbonyl]-2,3,4,5-tetrahydro-1,4-benzoxazepine], the IC50 against PI3Kα was 75 to 200 nM; on mTORC1 (mTOR/GbL/Raptor), not above 50 nM.

`Cc1nc2ccc(-c3ccc4c(c3)CN(C(=O)N3CCC(O)(c5ccc(F)cc5)CC3)CCO4)cc2[nH]1` [Compound 142, 4-(4-fluorophenyl)-1-{[7-(2-methyl-1H-benzimidazol-6-yl)-2,3-dihydro-1,4-benzoxazepin-4(5H)-yl]carbonyl}piperidin-4-ol]: the IC50 is 200 to 500 nM against PI3Kα and not above 50 nM at mTORC1 (mTOR/GbL/Raptor).

On to `O=C1CCN(C(=O)N2CCOc3ccc(-c4ccc(-c5ncc[nH]5)cc4)cc3C2)C(c2ccc(F)cc2)C1` (stereo not shown) [Compound 54, 2-(4-fluorophenyl)-1-({7-[4-(1H-imidazol-2-yl)phenyl]-2,3-dihydro-1,4-benzoxazepin-4(5H)-yl}carbonyl)piperidin-4-one], for which the IC50 against PI3Kα is not above 75 nM; at mTORC1 (mTOR/GbL/Raptor) it was not above 50 nM.

Consider `COC1CCN(C(=O)N2CCOc3ccc(-c4ccc5nc(C)[nH]c5c4)cc3C2)CC1` [Compound 105, 7-(2-methyl-1H-benzimidazol-6-yl)-4-{[4-(methyloxy)piperidin-1-yl]carbonyl}-2,3,4,5-tetrahydro-1,4-benzoxazepine], for which the IC50 at PI3Kα lay in the range of 500 to 1000 nM; on mTORC1 (mTOR/GbL/Raptor), 50 to 250 nM.

For `Cc1nc2ccc(-c3ccc4c(c3)CN(C(=O)N3CCN(c5ccccc5)CC3)CCO4)cc2[nH]1` [Compound 174, 7-(2-methyl-1H-benzimidazol-6-yl)-4-[(4-phenylpiperazin-1-yl)carbonyl]-2,3,4,5-tetrahydro-1,4-benzoxazepine], the IC50 fell in the range of 500 to 1000 nM against PI3Kα and 250 to 700 nM at mTORC1 (mTOR/GbL/Raptor).
